Laboratory results taken from patent US12358935B2, “Targeting redox-active pyridinium cations to mitochondria to inhibit proliferation of drug-resistant cancer cells” (The Medical College of Wisconsin, Inc., priority 2018, dated 2025).
“Also recorded” adds a separate entry of the source. Read-outs that look alike come from different tables or passages of the source.

Tests used:
[1] = tested on: LS513 colon cancer cells; assay: Superoxide production, hydroethidine (HE) assay with HPLC of 2-OH-E+; type: cell-based, human; conditions: 50 μM, 1 h pre-incubation then 1 h HE probe
Experimental: FIGS. 5A-5B. Stimulation of intracellular superoxide of Mito-Py. LS513 colon cancer cells were pre-incubated for 1 h with 50 μM Mito-Py followed by 1-h incubation with the HE probe. 2-OH-E^+ is a specific product of the reaction of the probe with superoxide. (A) Effect of the substituent on the pyridinium ring. (B) Effect of the alkyl linker length in Mito-NP.
Induction of superoxide production by mitochondria-targeted pyridinium cations.

[2] = tested on: LS513 cells; assay: Cell proliferation, IncuCyte cell confluence; type: cell-based, human; conditions: for IC50: estimated from concentration dependence
Experimental: FIG. 8. Effect of Mito-Py compounds (10 μM) on the proliferation of LS513 cells. (A) Effect of the substituent on the pyridinium ring. (B) Effect of the alkyl linker length in Mito-NP.
FIG. 9. Effect of concentration of Mito-NP-C8 and Mito-NP-C10 on the LS513 cell confluence. Dashed lines correspond to 50% cell confluence.
Antiproliferative effects of mitochondria-targeted pyridinium cations. To test if the mitochondrial redox stress induced by Mito-Py compounds would translate into inhibition of cancer cell proliferation, we compared the effects of Mito-Py of different redox potential and different alkyl linker length on proliferation of LS513 cells. We used the IncuCyte™ Live-Cell Imaging Analyzer that provides real-time cell confluence data (FIG. 8).

[3] = tested on: LS513 cells; assay: Cell death, Sytox Green; type: cell-based, human; conditions: prolonged (>24 h) incubation
[4] = tested on: mitochondrial Prx3; assay: Redox blotting of peroxiredoxin 3; type: cell-based, human; conditions: 10 μM, 1 h, LS513 cells
Experimental: FIG. 6. Effect of Mito-NP-C10 (10 μM, 1 h) on the redox status of cytosolic (Prx1) and mitochondrial (Prx3) peroxiredoxins. **p<0.01
Intracellular localization of redox stress. To understand the fate of superoxide induced by Mito-NP-C10 and determine the localization of the redox cycling process, we performed redox blotting of peroxiredoxin isoforms 1 and 3 (Prx1 and Prx3).

[5] = tested on: LS513 colon cancer cells; assay: Oxygen consumption rate / mitochondrial respiration; type: cell-based, human
Experimental: FIG. 7. Effect of Mito-NP-C10 (0-100 μM) on the rates of oxygen consumption (OCR) by LS513 colon cancer cells, and on the cell response to mitochondrial stressors: oligomycin (ATP synthase inhibitor), dinitrophenol (DNP, mitochondrial uncoupler) and antimycin A (mitochondrial complex III inhibitor).
Induction of bioenergetic stress. To test the effect of Mito-NP-C10 on the bioenergetic function of LS513 cells, we monitored the mitochondrial respiration in response to acute addition of the compound at different doses (FIG. 7).

[6] = tested on: MiaPaCa2 cells; assay: Inhibition of pancreatic cancer cell growth; type: cell-based, human
Experimental: (§1) FIG. 12. (A) Antiproliferative potency of Mito-NP against different pancreatic cancer cells. (B) Comparison of the antiproliferative effects of Mito-NP, with its untargeted analogs (10 μM each).
FIG. 19. Antiproliferative (A) and cytotoxic (B) potency of Mito-NP vs. Mito-NPH. MiaPaCa2 cells were incubated with the compounds for 5 days and cells counted (A) or for 24 h, followed by labeling with Sytox Green dead cell fluorescent stain (B).
(§2) 1. Antiproliferative and cytotoxic effects in pancreatic cancer cells. […] To determine the cytotoxic potency of Mito-NP, we used Sytox Green fluorescent marker, which accumulates in dead cells and increases its fluorescence yield upon binding DNA.
We treated pancreatic cancer cells with Mito-NP or Mito-NPH and the intracellular levels of both oxidized, redox-cycling capable Mito-NP, and its cell membrane-permeable reduced precursor, Mito-NPH, were measured using LC-MS/MS. […] The increased intracellular level of Mito-NP upon treatment with Mito-NPH also translated into 2-fold stronger stimulation of intracellular O2.^− production, as measured by monitoring O2.^−-specific product of hydroethidine oxidation, 2-OH-E^+ (FIG. 18C). […] Tumor size was measured using calipers and by weighing the tumor tissues at the completion of the study. […] The tumor tissues were analyzed for the level of Mito-NP and Mito-NPH 24 h after the last injection of Mito-NPH.

[7] = tested on: MiaPaCa2 cells; type: cell-based
Experimental: (§3) FIG. 13. […] Cells were stained with Sytox Green dye after 48-h treatment with the compounds to label dead cells.
FIG. 19. […] MiaPaCa2 cells were incubated with the compounds for 5 days and cells counted (A) or for 24 h, followed by labeling with Sytox Green dead cell fluorescent stain (B).
as §2
We treated pancreatic cancer cells with Mito-NP or Mito-NPH and the intracellular levels of both oxidized, redox-cycling capable Mito-NP, and its cell membrane-permeable reduced precursor, Mito-NPH, were measured using LC-MS/MS. […] The dynamics of inhibition of mitochondrial respiration by Mito-NPH and Mito-NP was used to follow the compounds' uptake rates. […] Next, we tested the effects of Mito-NPH on MiaPaCa2 cell proliferation and survival. […] 5. Syngraft mouse model. We have established a preliminary syngraft model using mouse FC1242 PDAC cell line. […] Tumor size was measured using calipers and by weighing the tumor tissues at the completion of the study. […] The tumor tissues were analyzed for the level of Mito-NP and Mito-NPH 24 h after the last injection of Mito-NPH.

[8] = tested on: MiaPaCa2 cells; assay: Cellular oxidants, HE probe with HPLC profiling; type: cell-based, human; conditions: 10 μM
Experimental: FIG. 14. Stimulation of cellular oxidants by Mito-NP in pancreatic cancer cells. Profiles of HE oxidation products in MiaPaCa2 cells treated with Mito-NP (10 μM, 4 h).
(§4) FIG. 18. (A) Intracellular level of Mito-NP and Mito-NPH. (B) Dynamics of inhibition of mitochondrial respiration by Mito-NP and Mito-NPH. (C) Intracellular generation. 10 μM Mito-NP or Mito-NPH was used.
2.1. Generation of O2.^− and other oxidants. […] We have confirmed the mitochondrial localization of O2.^− production using Mito-SOX (Mito-HE-C6) probe with HPLC-based detection of, 2-OH-Mito-E^+, the O2.^−-specific oxidation product of MitoSOX (not shown).
(§5) We treated pancreatic cancer cells with Mito-NP or Mito-NPH and the intracellular levels of both oxidized, redox-cycling capable Mito-NP, and its cell membrane-permeable reduced precursor, Mito-NPH, were measured using LC-MS/MS. […] The dynamics of inhibition of mitochondrial respiration by Mito-NPH and Mito-NP was used to follow the compounds' uptake rates. […] The increased intracellular level of Mito-NP upon treatment with Mito-NPH also translated into 2-fold stronger stimulation of intracellular O2.^− production, as measured by monitoring O2.^−-specific product of hydroethidine oxidation, 2-OH-E^+ (FIG. 18C). […] Next, we tested the effects of Mito-NPH on MiaPaCa2 cell proliferation and survival. […] 5. Syngraft mouse model. We have established a preliminary syngraft model using mouse FC1242 PDAC cell line. After the tumor has been established and detectable by palpation (seven days after injection of tumor cells), Mito-NPH (0.2 mg per injection) was administered three times per week. Tumor size was measured using calipers and by weighing the tumor tissues at the completion of the study. […] The tumor tissues were analyzed for the level of Mito-NP and Mito-NPH 24 h after the last injection of Mito-NPH.

[9] = tested on: MiaPaCa2 cells; assay: Bioenergetic function, Seahorse XF96 flux analyzer; type: cell-based, human
Experimental: FIG. 16. Inhibition of mitochondrial respiration by Mito-NP in MiaPaCa2 cells. (A) Mito-NP injected during the measurements. (B) Cells pretreated with Mito-NP for 24 h. (C) Effect of Mito-NP concentration on ATP-linked respiration rate after 1 h and 24 h incubation. (D) Effect of Mito-NP concentration on glycolytic and mitochondrial ATP production rates after 24-h incubation.
as §4
Immediately (1 h) after injection, a high concentration of Mito-NP (100 μM) was needed to block ATP-linked respiration (FIG. 16A,C). […] One of the hallmarks of cancer cells is their flexibility in using different energetic substrates to sustain growth in the presence of metabolism-targeted drugs.
as §5

[10] = tested on: FC1242 PDAC tumor; assay: Syngraft mouse model, tumor growth; type: in vivo; conditions: 0.2 mg per injection, three times per week, 9 days of treatment, FC1242 syngraft in mice
Source text: (§6) FIG. 20. In vivo effects of Mito-NPH on the FC1242 PDAC tumor growth in mice. (A) Tumor growth curves; (B) tumor wet weight after 9 days of treatment; and (C) LC-MS/MS traces of Mito-NP, Mito-NPH, and their metabolites: hydroxylamine (Mito-HAP) and amine (Mito-AP) derivatives extracted from tumor. n=5 per group, *p<0.05
as §5, with “After the tumor has been established and detectable by palpation (seven days after injection of tumor cells), Mito-NPH (0.2 mg per injection) was administered three times per week.” left out

[11] = Tumor tissue compound levels, LC-MS/MS; type: in vivo, mouse; conditions: 24 h after the last injection of Mito-NPH
Source text: as §6
as §5, with “After the tumor has been established and detectable by palpation (seven days after injection of tumor cells), Mito-NPH (0.2 mg per injection) was administered three times per week.” left out

[12] = tested on: Panc1 cells; assay: Inhibition of pancreatic cancer cell growth; type: cell-based, human
Experimental: as §1, §2

[13] = tested on: FC1242 cells; assay: Inhibition of pancreatic cancer cell growth; type: cell-based, mouse
Experimental: as §1, §2

[14] = tested on: HPNE non-tumorigenic pancreatic duct cell line; assay: Cytotoxicity, Sytox Green dead cell stain; type: cell-based, human; conditions: HPNE non-cancer cells, 48-h treatment
Source text: as §3, §2

[15] = tested on: mitochondrial Prx3; assay: Redox status of peroxiredoxin 3; type: cell-based, human; conditions: MiaPaCa2 cells
Source text: (§7) FIG. 15. Effect of Mito-NP on the redox status of cytosolic (Prx1) and mitochondrial (Prx3) peroxiredoxins in MiaPaCa2 cells. *p<0.05, ***p<0.001.
(§8) 2.2. Prx oxidation. Increased production of O2.^− results in elevated H2O2 flux. We tested the effect of Mito-NP on the redox status of cytosolic (Prx1) and mitochondrial (Prx3) peroxiredoxins (FIG. 15A).

[16] = tested on: cytosolic Prx1; assay: Redox status of peroxiredoxin 1; type: cell-based, human; conditions: MiaPaCa2 cells
Source text: as §7, §8

O=[N+]([O-])c1ccc[n+](CCCCCCCC[P+](c2ccccc2)(c2ccccc2)c2ccccc2)c1 [Mito-NP-C8]
superoxide production (2-OH-E+) [1]: stimulated superoxide production
IC50 [2]: 13 µM
cell death (Sytox Green) [3]: results in cell death

O=[N+]([O-])c1ccc[n+](CCCCCCCCCC[P+](c2ccccc2)(c2ccccc2)c2ccccc2)c1 [Mito-NP-C10]
superoxide production (2-OH-E+) [1]: most potent inducer of superoxide production
oxidation of mitochondrial Prx3 [4]: induces significant oxidation of mitochondrial Prx3
response to mitochondrial stressors (oligomycin, DNP, antimycin A) ([5]; 0-100 μM): a loss in response to oligomycin
mitochondrial respiration rates (OCR) ([5]; 0-100 μM, acute addition): time- and concentration-dependent inhibition in mitochondrial respiration rates
antimycin A-independent oxygen consumption ([5]; 30 and 100 μM): increased the rates of antimycin A-independent oxygen consumption
IC50 [2]: 6 µM
cell death (Sytox Green) [3]: results in cell death

O=[N+]([O-])C1=CN(CCCCCCCCCC[P+](c2ccccc2)(c2ccccc2)c2ccccc2)C=CC1 [Mito-NPH]
IC50 ([6]; 5 days incubation, read-out: IC50 (antiproliferative, cell count)): 1.2 ± 0.1 µM
cytotoxic potency (Sytox Green) vs Mito-NP ([7]; 24 h): significantly stronger cytotoxic agent
stimulation of intracellular O2.- production (2-OH-E+) vs Mito-NP [8]: 2 fold
dynamics of inhibition of mitochondrial respiration vs Mito-NP ([9]; 10 μM): More efficient inhibition of mitochondrial respiration
tumor growth (size, wet weight) [10]: inhibition of the tumor growth
compound level in tumor tissues [11]: detected both Mito-NP and Mito-NPH

O=[N+]([O-])c1ccc[n+](CCCCCCCCCC[P+](c2ccccc2)(c2ccccc2)c2ccccc2)c1 [Mito-NP]
cell proliferation (confluence) ([2]; 10 μM): blocked the proliferation of colon cancer cells
IC50 ([6]; read-out: IC50 (cell growth)): 2.7 ± 0.2 µM
IC50 [12]: 2.8 ± 0.3 µM
IC50 [13]: 3.1 ± 0.1 µM
cell death (Sytox Green) ([7]; 48-h treatment): dose-dependently induced death of MiaPaCa2 cells; also recorded: significantly stronger inducer of MiaPaCa2 cell death than Mito-Met
cell death (Sytox Green) [14]: No induction of cell death
O2.- production (2-OH-E+) ([8]; 4 h): significant increase
other HE oxidation products ([8]; 4 h): An increased level of other oxidation products
oxidation of mitochondrial Prx3 [15]: strong oxidation of mitochondrial Prx3
oxidation of cytosolic Prx1 [16]: only modest effect on cytosolic Prx1
mitochondrial respiration [9]: time- and concentration-dependent inhibition of mitochondrial respiration
ATP-linked respiration ([9]; 10 μM, 24-h incubation): complete inhibition of ATP-linked respiration
rate of mitochondrial ATP production ([9]; 24-h incubation): decrease in the rate of mitochondrial ATP production
concentration needed to block ATP-linked respiration ([9]; 1 h after injection): 100 µM
glycolytic ATP production ([9]; concentrations higher than 10 μM, 24-h incubation): decreased at higher concentrations
glycolytic ATP production ([9]; concentrations up to 10 μM, 24-h incubation): remained unchanged
